Among the test systems are UACC-257 melanoma; NCI-H23 lung; HOP-62 NSCLC; RPMI-8226 leukemia; OVCAR-8 ovarian; MOLT-4 leukemia; SN12C renal; SK-MEL-5 melanoma; LOX IMVI melanoma; OVCAR-5 ovarian.
Holding throughout (test): inhibition of tumour cell growth, NCI panel, 48 h

SMILES strings stand for the structures.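 Test compounds were applied to cells in 96-well plates for 48 hours at 5 doses. GI50 marks 50% less growth. At the TGI there is no net growth.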

On to `O=C1CC(N2C(=O)/C(=C/C(Cl)=C\c3ccc([N+](=O)[O-])cc3)SC2=S)C(=O)N1c1ccc(Cl)cc1` (configuration not stated), for which the GI50 in the test with UACC-257 melanoma is 2.92 µM; in the test on NCI-H23 lung, 1.64 µM; in the test on HOP-62 NSCLC it was 1.73 µM; with RPMI-8226 leukemia, 0.303 µM; with OVCAR-8 ovarian it was 0.832 µM; with MOLT-4 leukemia, 0.596 µM. The GI50 with SN12C renal was 1.69 µM. For the same compound, the TGI in the test on UACC-257 melanoma is 66.5 µM; with NCI-H23 lung it was 4.31 µM; in the test on HOP-62 NSCLC, 5.5 µM; in the test on RPMI-8226 leukemia it was 0.979 µM; in the test with OVCAR-8 ovarian, greater than 100 µM; in the test with MOLT-4 leukemia it was 13.4 µM. The same compound showed a TGI in the test with SN12C renal of 11.1 µM.

For the compound `CCn1cc(C(=O)O)c(=O)c2cc(F)c(N3CCN(Cn4c(O)c(N=NC(=O)c5ccncc5)c5cc(Cl)ccc54)CC3)cc21`, the TGI in the test with UACC-257 melanoma is greater than 100 µM; in the test on NCI-H23 lung it was greater than 100 µM; in the test with HOP-62 NSCLC, 55.2 µM; with SK-MEL-5 melanoma, greater than 100 µM; in the test on OVCAR-8 ovarian it was greater than 100 µM; with LOX IMVI melanoma, greater than 100 µM. Besides, the TGI in the test on MOLT-4 leukemia is 36 µM; with SN12C renal, greater than 100 µM; in the test on OVCAR-5 ovarian, greater than 100 µM.

As for `O=C1CS(=O)(=O)C(c2cccc(Oc3ccccc3)c2)N1c1cccc(Cl)c1Cl` (configuration not stated), the TGI in the test with UACC-257 melanoma is 51.2 µM; in the test with HOP-62 NSCLC it was greater than 100 µM; with SK-MEL-5 melanoma, 42.6 µM; in the test with OVCAR-8 ovarian, 60.1 µM; in the test with LOX IMVI melanoma, 47.7 µM; in the test on MOLT-4 leukemia, 58.9 µM. Moreover, the TGI with SN12C renal was 44.6 µM; in the test on OVCAR-5 ovarian, greater than 100 µM.

Take `O=C1CCC(NC(=O)Cc2ccc(O)cc2)C(=O)N1` (configuration not stated): the TGI with UACC-257 melanoma, in the test on NCI-H23 lung, in the test on SK-MEL-5 melanoma, in the test on OVCAR-8 ovarian, in the test with LOX IMVI melanoma and in the test on SN12C renal was greater than 2500 µM in each case. Besides, the TGI in the test with OVCAR-5 ovarian is greater than 2500 µM.

As for `COC1CCC(OS(C)(=O)=O)CO1` (configuration not stated), the TGI was greater than 100 µM in the test on UACC-257 melanoma; greater than 100 µM in the test with NCI-H23 lung; greater than 100 µM in the test on HOP-62 NSCLC; 98.2 µM in the test with RPMI-8226 leukemia; greater than 100 µM with MOLT-4 leukemia; greater than 100 µM in the test with OVCAR-5 ovarian.

`COc1nc(C#CCCCC#N)nc(OC)n1`: the TGI in the test on UACC-257 melanoma stood at 45.2 µM; with NCI-H23 lung, 31.4 µM; in the test with HOP-62 NSCLC, 48.7 µM; in the test with SK-MEL-5 melanoma, 28.2 µM; in the test on OVCAR-8 ovarian it was 61.4 µM; with LOX IMVI melanoma, 14.2 µM. Besides, the values for the TGI in the test with MOLT-4 leukemia, in the test on SN12C renal and in the test with OVCAR-5 ovarian were greater than 100 µM, 36.5 µM and 27.8 µM, respectively.

On to `CC(=O)OCCC[C@@H]1C(=C(C)C)CCC2[C@@]1(C)CC[C@@]1(C)C[C@](C)(CCC=C(C)C)CC[C@]21C` (some centres not stated), for which the TGI in the test with UACC-257 melanoma, with NCI-H23 lung, in the test with HOP-62 NSCLC, with SK-MEL-5 melanoma, with RPMI-8226 leukemia and in the test on OVCAR-8 ovarian was greater than 100 µM throughout. Besides, the TGI with MOLT-4 leukemia, in the test with SN12C renal and in the test with OVCAR-5 ovarian was greater than 100 µM throughout.

In the case of `O=C(NN1C(=O)/C(=C/c2ccc(Cl)cc2)N=C1c1ccccc1)c1c(Cl)c(Cl)c(Cl)c(Cl)c1-c1nc2ccccc2[nH]1`, the TGI with NCI-H23 lung is 34.9 µM; with HOP-62 NSCLC, greater than 100 µM; in the test on SK-MEL-5 melanoma, greater than 100 µM; with OVCAR-8 ovarian it was greater than 100 µM; with LOX IMVI melanoma, 62.8 µM; in the test on MOLT-4 leukemia, greater than 100 µM. For the same compound, the TGI with SN12C renal was 86.4 µM; in the test on OVCAR-5 ovarian, greater than 100 µM.

In the case of `O=C1OC(c2ccccc2)=N/C1=C/c1cccs1`, the TGI was greater than 100 µM in the test with UACC-257 melanoma; greater than 100 µM with HOP-62 NSCLC; 44.9 µM with RPMI-8226 leukemia; greater than 100 µM in the test on OVCAR-8 ovarian; 41.9 µM with MOLT-4 leukemia; greater than 100 µM in the test with OVCAR-5 ovarian.

As to `CN1CCN(CCCOc2ccc3ncnc(Nc4ccc(Oc5cccc(C(F)(F)F)c5)c(Cl)c4)c3c2)CC1`, the GI50 in the test on UACC-257 melanoma was 1.82 µM; with NCI-H23 lung it was 1.81 µM; in the test on OVCAR-8 ovarian it was 2.78 µM; in the test with LOX IMVI melanoma, 1.3 µM; in the test on MOLT-4 leukemia it was 1.83 µM; in the test on SN12C renal it was 1.26 µM. For the same compound, the GI50 in the test on OVCAR-5 ovarian was 1.7 µM. Moreover, the TGI worked out at 3.75 µM with UACC-257 melanoma; 4.04 µM in the test with NCI-H23 lung; 10.7 µM in the test with OVCAR-8 ovarian; 2.81 µM in the test with LOX IMVI melanoma; 4.8 µM in the test on MOLT-4 leukemia; 2.57 µM with SN12C renal. In the test with OVCAR-5 ovarian, this compound returned a TGI of 3.46 µM.

With `COc1ccc(/C=c2/[nH]c(=O)/c(=C\c3ccc(OCc4ccccc4)cn3)[nH]c2=O)cc1`, the TGI in the test with UACC-257 melanoma, with NCI-H23 lung, in the test on HOP-62 NSCLC, in the test on SK-MEL-5 melanoma, with OVCAR-8 ovarian and in the test on LOX IMVI melanoma was greater than 100 µM in each case. The TGI with MOLT-4 leukemia, in the test with SN12C renal and in the test with OVCAR-5 ovarian was greater than 100 µM throughout.

Consider `Cc1c(Cl)c(=O)oc2cc(OCC(=O)c3ccccc3)ccc12`, for which the TGI in the test on UACC-257 melanoma was greater than 100 µM; with NCI-H23 lung, greater than 100 µM; in the test on HOP-62 NSCLC it was 67.8 µM; in the test on SK-MEL-5 melanoma, greater than 100 µM; in the test on OVCAR-8 ovarian it was greater than 100 µM; with MOLT-4 leukemia, greater than 100 µM. Moreover, the TGI in the test with SN12C renal and in the test on OVCAR-5 ovarian was greater than 100 µM in each case.

Values taken from PubChem BioAssay (NCI).
